Test results: patent US12186314B2, “Compositions and methods for treatment, amelioration, and prevention of anesthesia-induced hypothermia” (ARIZONA BOARD OF REGENTS ON BEHALF OF THE UNIVERSITY OF …, priority 2015, dated 2025)
Entries after “also recorded” stand apart in the source; their conditions may differ. Read-outs that look alike come from different tables or passages of the source.

Columns and labels:
TRPV1 [1] = target: T1, TRPV1 (Rattus norvegicus, UniProt O35433); set-up: from tissue; host or cells: whole live non-anesthetized rats; conditions: non-anesthetized (unanesthetized) rats, cited from earlier work
TRPV1 [2] = target: T1, TRPV1; conditions: 24 hours post surgery
TRPV1 [3] = target: T2, TRPV1 (Homo sapiens, UniProt Q8NER1); conditions: non-anesthetized humans; cited from earlier work
T2 construct: host or cells: human subjects (clinical observations)

TRPV1 [4] = target: T1, TRPV1; test: volatile (isoflurane) anesthesia-induced hypothermia in adult rats, rectal core body temperature; type: in vivo; set-up: from tissue; host or cells: whole live non-anesthetized rats; conditions: isoflurane 5% induction, 2.5% maintenance, 0.01, 0.1 and 1 mg/kg, 5 min intervals, 0.1 and 1 mg/kg significant at all time points (p<0.01)
Experimental: Briefly, after obtaining baseline core body temperature, lightly restrained rats were anesthetized with isoflurane (5% induction, 2.5% maintenance), the effect of varying dose of AMG 517 (0.01, 0.1 and 1 mg/kg) and control (vehicle) on rectally-measured temperature (core body temperature) was measured at 5 min intervals. At 20 minutes, a warming blanket was used to prevent further temperature drop in the control (vehicle) group. Vehicle treated rats developed hypothermia after exposure to anesthesia.

TRPV1 [5] = target: T1, TRPV1; test: isoflurane anesthesia-induced hypothermia in neonatal rats, core body temperature; type: in vivo; set-up: from tissue; host or cells: whole live non-anesthetized rats; conditions: neonatal rats (age 10d), 1 mg/kg i.v. (at 20 min time point) and 2 mg/kg (all time points)
Experimental: Briefly, after gently separating neonatal male or female rats (age 10d) from the littermates, the animals were exposed to isoflurane anesthesia (5% induction, 2.5% maintenance), and then were injected with either vehicle or AMG 517 (1-2 mg/kg, i.v.) and core body temperature was measured at 5 minute intervals.

TRPV1 [6] = target: T1, TRPV1; test: core body temperature during isoflurane anesthesia and in the post-anesthesia period; type: in vivo; set-up: from tissue; host or cells: whole live non-anesthetized rats; conditions: rats
Experimental: After taking baseline core body temperature, rats were anesthetized with isoflurane and quickly injected with either vehicle or 0.1 mg/kg of AMG 517 via a tail vein injection. The core body temperature was measured every 5 minutes during the duration of anesthesia (45 min) and 30 minutes after that (n=8 per group) (see, FIG. 3).

TRPV1 [7] = target: T1, TRPV1; test: ketamine-induced hypothermia in rats, core body temperature; type: in vivo; set-up: from tissue; host or cells: whole live non-anesthetized rats; conditions: ketamine 100 mg/kg, 0.01-1 mg/kg tail vein
Experimental: This example describes the use of AMG 517 to reverse hypothermia induced by a non-volatile anesthetic (ketamine) (FIG. 5). After taking baseline core body temperature, rats were anesthetized with ketamine (100 mg/kg) and quickly injected with either vehicle or 0.01-1 mg/kg of AMG 517 via a tail vein injection. The core body temperature was measured every 5 minutes for 20 minutes post ketamine injection (n=8 per group).

TRPV1 [8] = target: T1, TRPV1; test: isoflurane anesthesia-induced hypothermia in adult rats, various TRPV1 antagonists, rectal temperature; type: in vivo; set-up: from tissue; host or cells: whole live non-anesthetized rats; conditions: isoflurane 2 L/min, 5% induction, 2.5% maintenance, 20 minutes post anesthesia-induction
Experimental: After acclimatizing to the testing chamber and obtaining baseline core body temperature, adult rats were anesthetized with isoflurane (2 L/min, 5% induction, 2.5% maintenance) and the anesthetized animals were injected with vehicle or various TRPV1 antagonists at doses described and rectal temperature was monitored for 20 minutes post anesthesia-induction.

T2 sequence (Q8NER1 whole entry): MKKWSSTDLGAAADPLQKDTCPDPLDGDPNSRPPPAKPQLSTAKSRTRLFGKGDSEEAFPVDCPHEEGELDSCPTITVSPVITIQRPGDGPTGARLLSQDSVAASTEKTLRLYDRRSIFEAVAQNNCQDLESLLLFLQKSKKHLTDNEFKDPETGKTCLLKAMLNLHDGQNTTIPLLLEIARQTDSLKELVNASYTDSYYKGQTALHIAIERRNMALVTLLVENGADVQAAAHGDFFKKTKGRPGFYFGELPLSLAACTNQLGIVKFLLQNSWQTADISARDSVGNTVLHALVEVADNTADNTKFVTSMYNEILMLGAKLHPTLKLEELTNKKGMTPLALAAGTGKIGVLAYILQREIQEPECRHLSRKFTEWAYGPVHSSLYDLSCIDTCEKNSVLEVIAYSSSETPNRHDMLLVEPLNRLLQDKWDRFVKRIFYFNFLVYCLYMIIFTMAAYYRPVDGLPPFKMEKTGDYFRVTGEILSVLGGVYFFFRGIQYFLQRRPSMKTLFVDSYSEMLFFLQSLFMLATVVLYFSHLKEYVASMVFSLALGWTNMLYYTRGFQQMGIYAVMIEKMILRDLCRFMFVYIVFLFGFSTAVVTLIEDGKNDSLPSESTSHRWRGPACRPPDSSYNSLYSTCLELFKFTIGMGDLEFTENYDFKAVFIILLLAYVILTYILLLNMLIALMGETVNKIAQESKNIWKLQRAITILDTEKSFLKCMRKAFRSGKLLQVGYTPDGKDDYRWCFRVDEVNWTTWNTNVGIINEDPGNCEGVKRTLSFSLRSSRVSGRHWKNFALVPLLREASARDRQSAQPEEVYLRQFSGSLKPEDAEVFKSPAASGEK
T1 sequence (O35433 whole entry): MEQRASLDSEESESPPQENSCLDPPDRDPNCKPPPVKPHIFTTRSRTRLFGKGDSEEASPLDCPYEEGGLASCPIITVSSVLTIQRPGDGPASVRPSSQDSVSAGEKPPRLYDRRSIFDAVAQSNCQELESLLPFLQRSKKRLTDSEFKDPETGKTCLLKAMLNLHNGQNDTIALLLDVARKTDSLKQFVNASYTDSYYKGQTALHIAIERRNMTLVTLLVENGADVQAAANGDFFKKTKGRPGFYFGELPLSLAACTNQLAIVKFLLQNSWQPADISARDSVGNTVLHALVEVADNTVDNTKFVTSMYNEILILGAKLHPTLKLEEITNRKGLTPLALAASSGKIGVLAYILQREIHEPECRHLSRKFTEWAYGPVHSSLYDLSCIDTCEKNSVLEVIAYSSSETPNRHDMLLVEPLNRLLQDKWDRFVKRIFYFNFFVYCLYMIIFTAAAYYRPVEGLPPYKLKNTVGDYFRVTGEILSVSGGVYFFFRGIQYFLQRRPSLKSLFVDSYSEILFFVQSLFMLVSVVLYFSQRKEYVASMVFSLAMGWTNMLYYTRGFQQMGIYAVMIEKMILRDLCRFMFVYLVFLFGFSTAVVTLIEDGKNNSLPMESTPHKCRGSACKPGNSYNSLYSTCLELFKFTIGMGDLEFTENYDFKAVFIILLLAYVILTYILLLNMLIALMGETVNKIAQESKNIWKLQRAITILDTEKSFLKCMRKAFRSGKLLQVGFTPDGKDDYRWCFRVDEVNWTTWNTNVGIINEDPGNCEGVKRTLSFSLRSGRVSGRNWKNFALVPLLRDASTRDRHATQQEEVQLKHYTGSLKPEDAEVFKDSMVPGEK

Structure (SMILES) | ability to cause hyperthermia (TRPV1 [1]) | ability to cause hyperthermia (TRPV1 [3]) | reversal/prevention of anesthesia-induced hypothermia (rectal temperature) (TRPV1 [8]) | other results
Cc1cc2c(NC(=O)N[C@@H]3CC(CF)(CF)Oc4cc(Cl)ccc43)cccc2cn1 [A-1165442] | unable to cause hyperthermia | – | – | –
CC(=O)Nc1nc2c(Oc3cc(-c4ccc(C(F)(F)F)cc4)ncn3)cccc2s1 [AMG 517] | able to cause hyperthermia | able to cause hyperthermia | – | opioid sparing effect on postsurgical thermal and mechanical hyperalgesia (TRPV1 [2]; rats, preemptive tail vein dose before incision, subcutaneous morphine): opioid sparing effect; reversal of anesthesia-induced hypothermia (rectally-measured core body temperature) (TRPV1 [4]): dose dependently reversed anesthesia-induced hypothermia; reversal of anesthesia-induced hypothermia (core body temperature) (TRPV1 [5]): partially and statistically significantly; hyperthermia in the post-anesthesia period (TRPV1 [6]; 0.1 mg/kg tail vein, 30 minutes after anesthesia, 0.1 mg/kg): does not produce hyperthermia in the post-anesthesia period; also recorded: did not cause hyperthermia even when the animals recovered from anesthesia; development of hypothermia during anesthesia (core body temperature) (TRPV1 [6]; isoflurane 45 min, 0.1 mg/kg tail vein injection): never developed hypothermia throughout the anesthesia period; hyperthermia under ketamine anesthesia (TRPV1 [7]): without causing hyperthermia at all time points tested; reversal of ketamine-induced hypothermia (core body temperature) (TRPV1 [7]; 20 minutes post ketamine): dose dependently and statistically significantly
CC(C)(C)c1ccc(/C=C/C(=O)Nc2ccc3c(c2)OCCO3)cc1 [AMG 9810] | able to cause hyperthermia | able to cause hyperthermia | dose dependently reverse anesthesia-induced hypothermia | ability to cause hyperthermia (TRPV1 [1]; listed as AMG): cause hyperthermia in unanesthetized rats
COc1cccc(NC(=O)/C=C/c2ccc(Cl)cc2)c1 [SB366791] | unable to cause hyperthermia | – | dose dependently reverse anesthesia-induced hypothermia | ability to cause hyperthermia (TRPV1 [1]; listed as SB): cause hyperthermia in unanesthetized rats
CN1CC[C@]23c4c5ccc(O)c4O[C@H]2[C@@H](O)C=C[C@H]3[C@H]1C5 [morphine] | – | – | – | morphine analgesic effect on postsurgical thermal and mechanical hyperalgesia (TRPV1 [2]; animals that received preemptive TRPV1 antagonist treatment before the surgical insult): analgesic effect at much lower doses of 0.3 and 0.6 mg/kg; morphine analgesic effect on postsurgical thermal and mechanical hyperalgesia (TRPV1 [2]; vehicle treated animals): not responsive to morphine until the dose of morphine was raised to 1 mg/kg
CC(C)(C)c1ccc2c(c1)CC[C@H]2NC(=O)Nc1cccc2[nH]ncc12 [ABT 102] | able to cause hyperthermia | able to cause hyperthermia | dose dependently reverse anesthesia-induced hypothermia | ability to cause hyperthermia (TRPV1 [1]; listed as ABT): cause hyperthermia in unanesthetized rats
Oc1cc2c(cc1O)CN(C(=S)NCCc1ccc(Cl)cc1)CCC2 [capsazepine] | unable to cause hyperthermia; also recorded: don't | – | able to prevent anesthesia-induced hypothermia; also recorded: dose dependently reverse anesthesia-induced hypothermia | –
